Results from patent US11498899B2, “Nitrone herbicides” (FMC Corporation, priority 2016, dated 2022).

Assays:
[1] = system: ducksalad (Heteranthera limosa); assay: Test B flooded paddy test, visual rating 0-100; settings: Flood, 250 g ai/ha, applied to paddy water, rated after 13 to 15 days
rice (Oryza sativa) = assay: Test B flooded paddy test, visual rating 0-100 (0 no effect, 100 complete control); settings: Flood, 250 g ai/ha, applied to paddy water, rated after 13 to 15 days
[2] = system: barnyardgrass (Echinochloa crus-galli); assay: Test A preemergence, visual injury rating 0-100 (0 no effect, 100 complete control); format: in vivo; settings: for Barnyardgrass plant response rating (0 to 100 scale): 125 g ai/ha
Text: (§1) Seeds of plant species selected from barnyardgrass (Echinochloa crus-galli), kochia (Kochia scoparia), ragweed (common ragweed, Ambrosia elatior), ryegrass, Italian (Italian ryegrass, Lolium multiflorum), foxtail, giant (giant foxtail, Setaria faberii), foxtail, green (green foxtail, Setaria viridis), and pigweed (Amaranthus retroflexus) were planted into a blend of loam soil and sand and treated preemergence with a directed soil spray using test chemicals formulated in a non-phytotoxic solvent mixture which included a surfactant.
(§2) At the same time, plants selected from these weed species and also wheat (Triticum aestivum), corn (Zea mays), blackgrass (Alopecurus myosuroides), and galium (catchweed bedstraw, Galium aparine) were planted in pots containing the same blend of loam soil and sand and treated with postemergence applications of test chemicals formulated in the same manner. Plants ranged in height from 2 to 10 cm and were in the one- to two-leaf stage for the postemergence treatment. Treated plants and untreated controls were maintained in a greenhouse for approximately 10 days, after which time all treated plants were compared to untreated controls and visually evaluated for injury. […] A dash (-) response means no test result.

[3] = system: ragweed (common ragweed, Ambrosia elatior); assay: Test A postemergence, visual injury rating 0-100; format: in vivo; settings: 0 to 100 scale
Text: as §1, §2

kochia (Kochia scoparia) [4] = assay: Test A postemergence, visual injury rating 0-100; format: in vivo; settings: 0 to 100 scale
Text: as §1, §2

[5] = system: barnyardgrass (Echinochloa crus-galli); assay: Test A postemergence, visual injury rating 0-100; format: in vivo; settings: 0 to 100 scale
Text: as §1, §2

[6] = system: foxtail, giant (giant foxtail, Setaria faberii); assay: Test A postemergence, visual injury rating 0-100; format: in vivo; settings: 0 to 100 scale
Text: as §1, §2

[7] = system: blackgrass (Alopecurus myosuroides); assay: Test A postemergence, visual injury rating 0-100; format: in vivo; settings: 0 to 100 scale
Text: as §1, §2

[8] = system: pigweed (Amaranthus retroflexus); assay: Test A postemergence, visual injury rating 0-100; format: in vivo; settings: 0 to 100 scale
Text: as §1, §2

[9] = system: wheat (Triticum aestivum); assay: Test A postemergence, visual injury rating 0-100; format: in vivo; settings: 0 to 100 scale
Text: as §1, §2

[10] = system: ryegrass, Italian (Italian ryegrass, Lolium multiflorum); assay: Test A postemergence, visual injury rating 0-100; format: in vivo; settings: 0 to 100 scale
Text: as §1, §2

corn (Zea mays) = assay: Test A postemergence, visual injury rating 0-100; format: in vivo; settings: 0 to 100 scale
Text: as §1, §2

[11] = system: galium (catchweed bedstraw, Galium aparine); assay: Test A postemergence, visual injury rating 0-100; format: in vivo; settings: 0 to 100 scale
Text: as §1, §2

[12] = system: barnyardgrass (Echinochloa crus-galli); assay: Test B flooded paddy test, visual rating 0-100; settings: Flood, 250 g ai/ha, applied to paddy water, rated after 13 to 15 days
[13] = system: ragweed (common ragweed, Ambrosia elatior); assay: Test A preemergence, visual injury rating 0-100; format: in vivo; settings: for Ragweed plant response rating (0 to 100 scale): 125 g ai/ha
Text: as §1, §2

kochia (Kochia scoparia) [14] = assay: Test A preemergence, visual injury rating 0-100; format: in vivo; settings: for Kochia plant response rating (0 to 100 scale): 125 g ai/ha
Text: as §1, §2

[15] = system: foxtail, giant (giant foxtail, Setaria faberii); assay: Test A preemergence, visual injury rating 0-100; format: in vivo; settings: for Foxtail, Giant plant response rating (0 to 100 scale): 125 g ai/ha
Text: as §1, §2

[16] = system: pigweed (Amaranthus retroflexus); assay: Test A preemergence, visual injury rating 0-100; format: in vivo; settings: for Pigweed plant response rating (0 to 100 scale): 125 g ai/ha
Text: as §1, §2

[17] = system: ryegrass, Italian (Italian ryegrass, Lolium multiflorum); assay: Test A preemergence, visual injury rating 0-100; format: in vivo; settings: for Ryegrass, Italian plant response rating (0 to 100 scale): 125 g ai/ha
Text: as §1, §2

[18] = 31 g ai/ha, 0 to 100 scale (0 no effect, 100 complete control), approx. 10 days

| SMILES | Ducksalad plant response rating (0 to 100 scale) [1] | Rice plant response rating (0 to 100 scale) (rice (Oryza sativa)) | Barnyardgrass plant response rating (0 to 100 scale) [2] | Barnyardgrass plant response rating ([2]; 500 g ai/ha, 0 to 100 scale) | Ragweed plant response rating ([3]; 125 g ai/ha) | Kochia plant response rating (kochia (Kochia scoparia) [4]; 125 g ai/ha) | Barnyardgrass plant response rating ([5]; 125 g ai/ha) | Foxtail, Giant plant response rating ([6]; 125 g ai/ha) | Blackgrass plant response rating ([7]; 125 g ai/ha) | Pigweed plant response rating ([8]; 125 g ai/ha) | Wheat plant response rating ([9]; 125 g ai/ha) | Ryegrass, Italian plant response rating ([10]; 125 g ai/ha) | Corn plant response rating (corn (Zea mays); 125 g ai/ha) | Galium plant response rating ([11]; 125 g ai/ha) | Barnyardgrass plant response rating (0 to 100 scale) [12] | Ragweed plant response rating (0 to 100 scale) [13] | Kochia plant response rating (0 to 100 scale) (kochia (Kochia scoparia) [14]) | Foxtail, Giant plant response rating (0 to 100 scale) [15] | Pigweed plant response rating (0 to 100 scale) [16] | Ryegrass, Italian plant response rating (0 to 100 scale) [17] | also measured |
| --- | --- | --- | --- | --- | --- | --- | --- | --- | --- | --- | --- | --- | --- | --- | --- | --- | --- | --- | --- | --- | --- |
| CC1=[N+]([O-])C(C(=O)Nc2cccc(F)c2F)C(c2ccc3c(c2)OCO3)C1 (racemic) [Compound 4] | 40 | 10 | 100 | 100 | 0 | 0 | 50 | 40 | 0 | 0 | 0 | 0 | 0 | 30 | 60 | 0 | 0 | 100 | 20 | 0 | Ragweed plant response rating ([3]; 500 g ai/ha): 50; Kochia plant response rating (kochia (Kochia scoparia) [4]; 500 g ai/ha): 50; Barnyardgrass plant response rating ([5]; 500 g ai/ha): 90; Foxtail, Giant plant response rating ([6]; 500 g ai/ha): 90; Blackgrass plant response rating ([7]; 500 g ai/ha): 20; Pigweed plant response rating ([8]; 500 g ai/ha): 20; Wheat plant response rating ([9]; 500 g ai/ha): 60; Ryegrass, Italian plant response rating ([10]; 500 g ai/ha): 40; Corn plant response rating (corn (Zea mays); 500 g ai/ha): 60; Galium plant response rating ([11]; 500 g ai/ha): 60; Ragweed plant response rating ([13]; 500 g ai/ha, 0 to 100 scale): 100; Kochia plant response rating (kochia (Kochia scoparia) [14]; 500 g ai/ha, 0 to 100 scale): 80; Foxtail, Giant plant response rating ([15]; 500 g ai/ha, 0 to 100 scale): 100; Pigweed plant response rating ([16]; 500 g ai/ha, 0 to 100 scale): 90; Ryegrass, Italian plant response rating ([17]; 500 g ai/ha, 0 to 100 scale): 20 |
| CC1=[N+]([O-])C(C(=O)Nc2cccc(F)c2F)C(c2cccc(F)c2)C1 (racemic) [Compound 8] | 100 | 0 | 90 | 90 | 0 | 0 | 50 | 90 | 0 | 0 | 0 | 0 | 0 | 20 | 85 | 0 | 0 | 90 | 20 | 0 | Ragweed plant response rating ([3]; 500 g ai/ha): 0; Kochia plant response rating (kochia (Kochia scoparia) [4]; 500 g ai/ha): 40; Barnyardgrass plant response rating ([5]; 500 g ai/ha): 90; Foxtail, Giant plant response rating ([6]; 500 g ai/ha): 90; Blackgrass plant response rating ([7]; 500 g ai/ha): 30; Pigweed plant response rating ([8]; 500 g ai/ha): 20; Wheat plant response rating ([9]; 500 g ai/ha): 50; Ryegrass, Italian plant response rating ([10]; 500 g ai/ha): 50; Corn plant response rating (corn (Zea mays); 500 g ai/ha): 0; Galium plant response rating ([11]; 500 g ai/ha): 60; Ragweed plant response rating ([13]; 500 g ai/ha, 0 to 100 scale): 80; Kochia plant response rating (kochia (Kochia scoparia) [14]; 500 g ai/ha, 0 to 100 scale): 50; Foxtail, Giant plant response rating ([15]; 500 g ai/ha, 0 to 100 scale): 90; Pigweed plant response rating ([16]; 500 g ai/ha, 0 to 100 scale): 40; Ryegrass, Italian plant response rating ([17]; 500 g ai/ha, 0 to 100 scale): 40 |
| CC1=[N+]([O-])C(C(=O)Nc2cccc(F)c2F)C(c2ccc(F)cc2)C1 (racemic) [Compound 9] | 100 | 0 | 90 | – | 0 | 0 | 40 | 50 | 0 | 20 | 0 | 0 | 0 | 30 | 85 | 90 | 0 | 90 | 30 | 0 | Barnyardgrass plant response rating [2, 18]: 30; Ragweed plant response rating ([3]; 31 g ai/ha): 0; Kochia plant response rating (kochia (Kochia scoparia) [4]; 31 g ai/ha): 0; Barnyardgrass plant response rating ([5]; 31 g ai/ha): 10; Foxtail, Giant plant response rating ([6]; 31 g ai/ha): 20; Blackgrass plant response rating ([7]; 31 g ai/ha): 0; Pigweed plant response rating ([8]; 31 g ai/ha): 0; Wheat plant response rating ([9]; 31 g ai/ha): 0; Ryegrass, Italian plant response rating ([10]; 31 g ai/ha): 0; Corn plant response rating (corn (Zea mays); 31 g ai/ha): 0; Galium plant response rating ([11]; 31 g ai/ha): 0; Ragweed plant response rating [13, 18]: 0; Kochia plant response rating (kochia (Kochia scoparia) [14]; [18]): 0; Foxtail, Giant plant response rating [15, 18]: 70; Pigweed plant response rating [16, 18]: 0; Ryegrass, Italian plant response rating [17, 18]: 0 |
| CC1=[N+]([O-])C(C(=O)Nc2cccc(F)c2F)C(c2ccc(F)c(F)c2)C1 (racemic) [Compound 10] | 100 | 0 | 90 | 90 | 0 | 0 | 40 | 60 | 20 | 0 | 0 | 0 | 0 | 50 | 85 | 0 | 0 | 80 | 50 | 0 | Ragweed plant response rating ([3]; 500 g ai/ha): 20; Kochia plant response rating (kochia (Kochia scoparia) [4]; 500 g ai/ha): 20; Barnyardgrass plant response rating ([5]; 500 g ai/ha): 90; Foxtail, Giant plant response rating ([6]; 500 g ai/ha): 90; Blackgrass plant response rating ([7]; 500 g ai/ha): 30; Pigweed plant response rating ([8]; 500 g ai/ha): 20; Wheat plant response rating ([9]; 500 g ai/ha): 70; Ryegrass, Italian plant response rating ([10]; 500 g ai/ha): 0; Corn plant response rating (corn (Zea mays); 500 g ai/ha): 50; Galium plant response rating ([11]; 500 g ai/ha): 60; Ragweed plant response rating ([13]; 500 g ai/ha, 0 to 100 scale): 90; Kochia plant response rating (kochia (Kochia scoparia) [14]; 500 g ai/ha, 0 to 100 scale): 60; Foxtail, Giant plant response rating ([15]; 500 g ai/ha, 0 to 100 scale): 90; Pigweed plant response rating ([16]; 500 g ai/ha, 0 to 100 scale): 60; Ryegrass, Italian plant response rating ([17]; 500 g ai/ha, 0 to 100 scale): 60 |
